According to BindingDB's records for doi:10.7270/Q25719FH (Srmlsc, 2007):

Biological target: Multidrug resistance-associated protein 1 (Homo sapiens, UniProt P33527)
Assay: doxorubicin EC50 increase in MRP-1 cells, dose response, cell-based, doxorubicin EC50 shift (AID 844)

Multidrug resistance-associated protein 1, sequence (P33527 whole entry): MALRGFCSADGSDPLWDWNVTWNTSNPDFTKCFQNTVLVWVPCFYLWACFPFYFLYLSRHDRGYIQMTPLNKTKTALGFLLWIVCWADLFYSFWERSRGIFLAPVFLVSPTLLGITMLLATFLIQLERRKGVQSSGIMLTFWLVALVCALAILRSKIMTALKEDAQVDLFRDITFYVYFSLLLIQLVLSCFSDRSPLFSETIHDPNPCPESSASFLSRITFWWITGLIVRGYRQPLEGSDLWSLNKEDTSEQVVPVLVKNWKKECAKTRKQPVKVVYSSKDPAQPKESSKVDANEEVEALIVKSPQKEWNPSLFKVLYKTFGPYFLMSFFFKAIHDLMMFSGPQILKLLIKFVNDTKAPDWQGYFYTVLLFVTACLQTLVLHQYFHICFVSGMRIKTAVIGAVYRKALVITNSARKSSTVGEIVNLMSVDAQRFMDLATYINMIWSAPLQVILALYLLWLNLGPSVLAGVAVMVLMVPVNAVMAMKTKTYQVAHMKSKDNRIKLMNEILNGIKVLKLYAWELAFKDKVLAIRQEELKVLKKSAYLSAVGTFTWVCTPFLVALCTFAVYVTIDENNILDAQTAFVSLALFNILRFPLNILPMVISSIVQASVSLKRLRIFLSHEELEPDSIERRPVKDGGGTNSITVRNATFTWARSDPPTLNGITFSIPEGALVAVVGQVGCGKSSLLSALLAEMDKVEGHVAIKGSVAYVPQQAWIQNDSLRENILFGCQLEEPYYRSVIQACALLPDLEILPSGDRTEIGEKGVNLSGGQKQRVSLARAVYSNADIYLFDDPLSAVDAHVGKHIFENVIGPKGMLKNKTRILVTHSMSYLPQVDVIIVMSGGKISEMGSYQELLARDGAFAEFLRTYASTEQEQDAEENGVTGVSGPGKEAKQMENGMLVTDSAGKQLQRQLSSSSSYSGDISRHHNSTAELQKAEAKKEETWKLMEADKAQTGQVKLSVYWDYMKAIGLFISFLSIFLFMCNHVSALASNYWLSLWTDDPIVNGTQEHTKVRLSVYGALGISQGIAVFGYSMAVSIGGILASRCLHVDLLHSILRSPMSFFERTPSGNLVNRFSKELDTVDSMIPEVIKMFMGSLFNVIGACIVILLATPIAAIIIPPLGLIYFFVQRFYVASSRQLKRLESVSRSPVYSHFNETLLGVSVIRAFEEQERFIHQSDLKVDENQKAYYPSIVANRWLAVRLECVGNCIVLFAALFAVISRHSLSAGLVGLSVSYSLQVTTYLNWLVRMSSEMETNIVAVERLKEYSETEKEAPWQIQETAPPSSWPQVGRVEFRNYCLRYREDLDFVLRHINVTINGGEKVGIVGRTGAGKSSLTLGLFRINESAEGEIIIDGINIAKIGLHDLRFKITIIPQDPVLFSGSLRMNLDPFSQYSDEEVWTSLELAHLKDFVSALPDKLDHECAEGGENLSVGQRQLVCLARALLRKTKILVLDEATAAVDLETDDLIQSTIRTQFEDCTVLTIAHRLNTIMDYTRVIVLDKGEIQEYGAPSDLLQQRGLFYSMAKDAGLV

Compound | EC50
CC1CCN(S(=O)(=O)c2ccc(Br)s2)CC1 [1-(5-bromanylthiophen-2-yl)sulfonyl-4-methyl-piperidine] | 3.52 µM
C=CCN(C(=O)Nc1ccc(Cl)cc1)c1cc(O)n(-c2ccc(OC)cc2)c1O [1-allyl-3-(4-chlorophenyl)-1-[2,5-diketo-1-(4-methoxyphenyl)pyrrolidin-3-yl]urea] | 4.85 µM
Cc1cc(N=NCc2ccccc2Cl)nc(NCc2ccccc2)n1 [2-N-benzyl-4-N-[(2-chlorophenyl)methylideneamino]-6-methylpyrimidine-2,4-diamine] | 1.08 µM
O=CC(=NNc1ccccc1)C(=O)c1ccncc1 [3-keto-2-(phenylhydrazono)-3-(4-pyridyl)propionaldehyde] | 7.54 µM
O=[N+]([O-])c1ccc(N=NCc2ccccc2)c(F)c1 [2-fluoranyl-4-nitro-N-[(phenylmethylidene)amino]aniline] | 3.44 µM
COc1cccc(C2C(C(=O)Nc3nc4ccccc4s3)=C(C)N=C3CC(C)(C)CC(=O)C32)c1OC (stereo unspecified) [N-(1,3-benzothiazol-2-yl)-4-(2,3-dimethoxyphenyl)-2,7,7-trimethyl-5-oxo-1,4,6,8-tetrahydroquinoline-3-carboxamide] | 1.6 µM
O=C1Nc2ccccc2[C@@]12N[C@@H](Cc1ccc(O)cc1)c1c2c(O)n(-c2ccc(F)cc2)c1O [(1S,3R,3aR,6aS)-5-(4-fluorophenyl)-1-(4-hydroxybenzyl)spiro[1,2,3a,6a-tetrahydropyrrolo[3,4-c]pyrrole-3,3'-indoline]-2',4,6-trione] | 7.87 µM
Oc1nc(Nc2ccc(Cl)cc2)sc1Cc1cc(Cl)ccc1Cl [2-(4-chloroanilino)-5-(2,5-dichlorobenzyl)-2-thiazolin-4-one] | 5.86 µM
COc1ccc(NC(=O)Cc2c(O)n(-c3ccc(F)cc3)c(=S)n2NC(=O)c2ccccc2)cc1 [MLS000592105] | 4.29 µM
Cc1cc(C)nc(N=NCc2cccc3ccccc23)n1 [(4,6-dimethylpyrimidin-2-yl)-(1-naphthylmethyleneamino)amine] | 5.39 µM
COc1ccccc1C1C(C(=O)c2sc(C)nc2C)C(=O)C(=O)N1CCN1CCOCC1 (stereo unspecified) [3-(2,4-dimethyl-1,3-thiazole-5-carbonyl)-4-hydroxy-2-(2-methoxyphenyl)-1-(2-morpholin-4-ylethyl)-2H-pyrrol-5-one] | 3.81 µM
Cc1cccc(Cc2sc(Nc3ccccn3)nc2O)c1 [5-(3-Methyl-benzyl)-2-(pyridin-2-ylimino)-thiazolidin-4-one] | 6.22 µM
CCN(CC)S(=O)(=O)c1ccc(N=NC(C#N)C#N)cc1 [4-[2-(dicyanomethylene)hydrazino]-N,N-diethylbenzenesulfonamide] | 3.7 µM
Cc1cccc(NC(=O)Cc2sc(=O)n(-c3ccccc3)c2O)c1 [2-(2,4-Dioxo-3-phenyl-thiazolidin-5-yl)-N-m-tolyl-acetamide] | 5.15 µM
Oc1nc(Nc2ccc(Cl)cc2)sc1Cc1cccc(Cl)c1Cl [2-(4-chloroanilino)-5-(2,3-dichlorobenzyl)-2-thiazolin-4-one] | 6.41 µM
C=CCc1c(C)nc(-c2ccccc2)nc1N=NC(C)c1ccc(N)cc1 (stereo unspecified) [(5-allyl-6-methyl-2-phenyl-pyrimidin-4-yl)-[1-(4-aminophenyl)ethylideneamino]amine] | 6.99 µM
COc1ccc(N2C(=S)C(C#N)C(=O)NC2c2ccco2)cc1 (stereo unspecified) [2-(2-furanyl)-4-mercapto-3-(4-methoxyphenyl)-6-oxo-1,2-dihydropyrimidine-5-carbonitrile] | 2.2 µM
COc1ccc(Cc2nnc(N=NCc3ccc(O)cc3O)[nH]c2=O)cc1OC | 0.836 µM
O=C(Cc1sc(=O)n(-c2ccccc2)c1O)Nc1ccccc1 [2-(2,4-diketo-3-phenyl-thiazolidin-5-yl)-N-phenyl-acetamide] | 6.42 µM
Cc1cc(N=NCc2ccc(O)cc2O)nc(-n2nc(C)cc2C)n1 [(4E)-4-[[2-[2-(3,5-dimethylpyrazol-1-yl)-6-methyl-pyrimidin-4-yl]hydrazinyl]methylidene]-3-oxidanyl-cyclohexa-2,5-dien-1-one] | < 0.195 µM
COc1ccc(NC(=O)Cc2c(O)n(-c3ccc(Cl)cc3)c(=S)n2NC(=O)c2cccc(F)c2)cc1 [MLS000590171] | 3.59 µM
